Laboratory results taken from ChEMBL document CHEMBL4507264, “Data for DCP probe BAY-7598” (2021).

Columns and labels:
[1] = target: Cyclin-dependent kinase 11B (Homo sapiens) (UniProt P21127); settings: Compound concentration 1000.0 nM
[2] = target: Discoidin domain-containing receptor 2 (Homo sapiens) (UniProt Q16832); settings: Compound concentration 1000.0 nM
[3] = target: Aurora kinase C (Homo sapiens) (UniProt Q9UQB9); settings: Compound concentration 1000.0 nM
[4] = target: Tyrosine-protein kinase ITK/TSK (Homo sapiens) (UniProt Q08881); settings: Compound concentration 1000.0 nM
[5] = tested on: Phosphatidylinositol 4,5-bisphosphate 3-kinase catalytic subunit alpha isoform (Homo sapiens), P42336 [I800L]; settings: Compound concentration 1000.0 nM
[6] = tested on: Mast/stem cell growth factor receptor Kit (Homo sapiens), P10721 [D816V]; settings: Compound concentration 1000.0 nM
Sequence of Mast/stem cell growth factor receptor Kit (Homo sapiens), P10721 [D816V] (P10721 whole entry D816V, canonical isoform): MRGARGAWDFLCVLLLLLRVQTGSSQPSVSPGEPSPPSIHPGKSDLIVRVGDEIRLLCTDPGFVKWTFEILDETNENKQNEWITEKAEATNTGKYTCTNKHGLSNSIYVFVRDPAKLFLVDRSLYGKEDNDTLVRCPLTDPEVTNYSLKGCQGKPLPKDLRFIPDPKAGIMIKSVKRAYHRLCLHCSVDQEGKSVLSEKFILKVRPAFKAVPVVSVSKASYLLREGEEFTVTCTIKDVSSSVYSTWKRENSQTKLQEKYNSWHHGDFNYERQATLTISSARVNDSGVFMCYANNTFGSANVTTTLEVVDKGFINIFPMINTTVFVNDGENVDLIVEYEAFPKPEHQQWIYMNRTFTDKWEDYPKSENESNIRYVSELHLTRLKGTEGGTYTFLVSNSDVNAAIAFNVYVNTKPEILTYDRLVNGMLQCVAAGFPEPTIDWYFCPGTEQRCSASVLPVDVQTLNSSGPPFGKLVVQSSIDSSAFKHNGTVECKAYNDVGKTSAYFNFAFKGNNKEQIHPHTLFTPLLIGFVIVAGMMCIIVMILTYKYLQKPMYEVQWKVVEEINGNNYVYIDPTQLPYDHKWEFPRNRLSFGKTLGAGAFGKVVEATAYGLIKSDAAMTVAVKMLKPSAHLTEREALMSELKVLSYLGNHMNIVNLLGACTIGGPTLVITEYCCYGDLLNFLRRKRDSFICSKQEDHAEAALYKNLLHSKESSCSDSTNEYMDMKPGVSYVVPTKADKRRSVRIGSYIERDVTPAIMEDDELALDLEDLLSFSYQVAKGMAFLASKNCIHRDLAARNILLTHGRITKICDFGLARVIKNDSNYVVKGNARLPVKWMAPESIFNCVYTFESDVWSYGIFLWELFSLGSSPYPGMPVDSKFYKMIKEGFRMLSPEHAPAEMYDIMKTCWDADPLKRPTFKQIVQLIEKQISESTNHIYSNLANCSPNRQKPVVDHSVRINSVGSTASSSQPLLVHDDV

[7] = target: Casein kinase I isoform delta (Homo sapiens) (UniProt P48730); settings: Compound concentration 1000.0 nM
[8] = target: Protein kinase C iota type (Homo sapiens) (UniProt P41743); settings: Compound concentration 1000.0 nM
[9] = target: Serine/threonine-protein kinase pim-1 (Homo sapiens) (UniProt P11309); settings: Compound concentration 1000.0 nM
[10] = target: Mitogen-activated protein kinase 1 (Homo sapiens) (UniProt P28482); settings: Compound concentration 1000.0 nM
[11] = target: Serine/threonine-protein kinase SIK1 (Homo sapiens) (UniProt P57059); settings: Compound concentration 1000.0 nM
[12] = target: Ephrin type-A receptor 8 (Homo sapiens) (UniProt P29322); settings: Compound concentration 1000.0 nM
[13] = target: Interferon-induced, double-stranded RNA-activated protein kinase (Homo sapiens) (UniProt P19525); settings: Compound concentration 1000.0 nM
[14] = target: Tyrosine-protein kinase Lyn (Homo sapiens) (UniProt P07948); settings: Compound concentration 1000.0 nM
[15] = target: Cyclin-dependent kinase 15 (Homo sapiens) (UniProt Q96Q40); settings: Compound concentration 1000.0 nM
Sequence of Cyclin-dependent kinase 15 (Homo sapiens) (Q96Q40 whole entry): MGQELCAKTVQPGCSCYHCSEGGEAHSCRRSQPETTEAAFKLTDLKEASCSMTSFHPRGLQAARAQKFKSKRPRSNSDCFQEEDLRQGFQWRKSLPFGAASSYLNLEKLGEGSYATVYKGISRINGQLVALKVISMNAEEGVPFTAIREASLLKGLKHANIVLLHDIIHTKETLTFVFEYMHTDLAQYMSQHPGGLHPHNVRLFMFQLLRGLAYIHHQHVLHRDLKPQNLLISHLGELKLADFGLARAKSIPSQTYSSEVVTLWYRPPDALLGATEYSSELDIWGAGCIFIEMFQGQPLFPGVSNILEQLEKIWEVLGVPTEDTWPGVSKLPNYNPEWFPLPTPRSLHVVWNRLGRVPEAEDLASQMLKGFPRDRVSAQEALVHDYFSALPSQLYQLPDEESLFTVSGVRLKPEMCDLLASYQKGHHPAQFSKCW

[16] = target: MAP/microtubule affinity-regulating kinase 3 (Homo sapiens) (UniProt P27448); settings: Compound concentration 1000.0 nM
Sequence of MAP/microtubule affinity-regulating kinase 3 (Homo sapiens) (P27448 whole entry, looked up): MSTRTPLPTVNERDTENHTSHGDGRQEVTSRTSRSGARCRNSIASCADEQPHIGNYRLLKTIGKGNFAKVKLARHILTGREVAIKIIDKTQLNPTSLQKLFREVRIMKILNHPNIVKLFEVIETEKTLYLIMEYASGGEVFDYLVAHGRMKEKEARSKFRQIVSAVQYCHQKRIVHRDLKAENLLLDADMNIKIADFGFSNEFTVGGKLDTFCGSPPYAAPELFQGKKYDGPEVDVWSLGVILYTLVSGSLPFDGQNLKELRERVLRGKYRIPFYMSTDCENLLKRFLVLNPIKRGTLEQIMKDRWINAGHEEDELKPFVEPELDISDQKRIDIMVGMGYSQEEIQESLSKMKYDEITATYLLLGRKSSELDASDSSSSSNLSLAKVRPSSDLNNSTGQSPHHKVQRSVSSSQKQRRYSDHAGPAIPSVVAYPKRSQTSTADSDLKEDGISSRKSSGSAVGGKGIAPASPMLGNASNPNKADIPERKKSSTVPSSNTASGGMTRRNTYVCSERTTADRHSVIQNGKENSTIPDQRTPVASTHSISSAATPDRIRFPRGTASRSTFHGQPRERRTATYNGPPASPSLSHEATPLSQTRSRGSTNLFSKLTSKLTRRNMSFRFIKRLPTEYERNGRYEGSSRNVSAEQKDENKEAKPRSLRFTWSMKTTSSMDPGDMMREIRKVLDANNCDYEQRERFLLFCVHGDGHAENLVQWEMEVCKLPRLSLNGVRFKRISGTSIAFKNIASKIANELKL

[17] = target: BDNF/NT-3 growth factors receptor (Homo sapiens) (UniProt Q16620); settings: Compound concentration 1000.0 nM
[18] = target: Mitogen-activated protein kinase 12 (Homo sapiens) (UniProt P53778); settings: Compound concentration 1000.0 nM
[19] = target: Protein-tyrosine kinase 6 (Homo sapiens) (UniProt Q13882); settings: Compound concentration 1000.0 nM
[20] = target: Dual specificity tyrosine-phosphorylation-regulated kinase 2 (Homo sapiens) (UniProt Q92630); settings: Compound concentration 1000.0 nM
[21] = tested on: Serine/threonine-protein kinase B-raf (Homo sapiens), P15056 [V600E]; settings: Compound concentration 1000.0 nM
[22] = target: Serine/threonine-protein kinase MRCK alpha (Homo sapiens) (UniProt Q5VT25); settings: Compound concentration 1000.0 nM
[23] = target: Death-associated protein kinase 3 (Homo sapiens) (UniProt O43293); settings: Compound concentration 1000.0 nM
[24] = target: Serine/threonine-protein kinase haspin (Homo sapiens) (UniProt Q8TF76); settings: Compound concentration 1000.0 nM
[25] = target: Serine/threonine-protein kinase DCLK2 (Homo sapiens) (UniProt Q8N568); settings: Compound concentration 1000.0 nM
[26] = tested on: Phosphatidylinositol 4,5-bisphosphate 3-kinase catalytic subunit alpha isoform (Homo sapiens), P42336 [E545K]; settings: Compound concentration 1000.0 nM
[27] = target: Serine/threonine-protein kinase MRCK gamma (Homo sapiens) (UniProt Q6DT37); settings: Compound concentration 1000.0 nM
Sequence of Serine/threonine-protein kinase MRCK gamma (Homo sapiens) (Q6DT37 whole entry): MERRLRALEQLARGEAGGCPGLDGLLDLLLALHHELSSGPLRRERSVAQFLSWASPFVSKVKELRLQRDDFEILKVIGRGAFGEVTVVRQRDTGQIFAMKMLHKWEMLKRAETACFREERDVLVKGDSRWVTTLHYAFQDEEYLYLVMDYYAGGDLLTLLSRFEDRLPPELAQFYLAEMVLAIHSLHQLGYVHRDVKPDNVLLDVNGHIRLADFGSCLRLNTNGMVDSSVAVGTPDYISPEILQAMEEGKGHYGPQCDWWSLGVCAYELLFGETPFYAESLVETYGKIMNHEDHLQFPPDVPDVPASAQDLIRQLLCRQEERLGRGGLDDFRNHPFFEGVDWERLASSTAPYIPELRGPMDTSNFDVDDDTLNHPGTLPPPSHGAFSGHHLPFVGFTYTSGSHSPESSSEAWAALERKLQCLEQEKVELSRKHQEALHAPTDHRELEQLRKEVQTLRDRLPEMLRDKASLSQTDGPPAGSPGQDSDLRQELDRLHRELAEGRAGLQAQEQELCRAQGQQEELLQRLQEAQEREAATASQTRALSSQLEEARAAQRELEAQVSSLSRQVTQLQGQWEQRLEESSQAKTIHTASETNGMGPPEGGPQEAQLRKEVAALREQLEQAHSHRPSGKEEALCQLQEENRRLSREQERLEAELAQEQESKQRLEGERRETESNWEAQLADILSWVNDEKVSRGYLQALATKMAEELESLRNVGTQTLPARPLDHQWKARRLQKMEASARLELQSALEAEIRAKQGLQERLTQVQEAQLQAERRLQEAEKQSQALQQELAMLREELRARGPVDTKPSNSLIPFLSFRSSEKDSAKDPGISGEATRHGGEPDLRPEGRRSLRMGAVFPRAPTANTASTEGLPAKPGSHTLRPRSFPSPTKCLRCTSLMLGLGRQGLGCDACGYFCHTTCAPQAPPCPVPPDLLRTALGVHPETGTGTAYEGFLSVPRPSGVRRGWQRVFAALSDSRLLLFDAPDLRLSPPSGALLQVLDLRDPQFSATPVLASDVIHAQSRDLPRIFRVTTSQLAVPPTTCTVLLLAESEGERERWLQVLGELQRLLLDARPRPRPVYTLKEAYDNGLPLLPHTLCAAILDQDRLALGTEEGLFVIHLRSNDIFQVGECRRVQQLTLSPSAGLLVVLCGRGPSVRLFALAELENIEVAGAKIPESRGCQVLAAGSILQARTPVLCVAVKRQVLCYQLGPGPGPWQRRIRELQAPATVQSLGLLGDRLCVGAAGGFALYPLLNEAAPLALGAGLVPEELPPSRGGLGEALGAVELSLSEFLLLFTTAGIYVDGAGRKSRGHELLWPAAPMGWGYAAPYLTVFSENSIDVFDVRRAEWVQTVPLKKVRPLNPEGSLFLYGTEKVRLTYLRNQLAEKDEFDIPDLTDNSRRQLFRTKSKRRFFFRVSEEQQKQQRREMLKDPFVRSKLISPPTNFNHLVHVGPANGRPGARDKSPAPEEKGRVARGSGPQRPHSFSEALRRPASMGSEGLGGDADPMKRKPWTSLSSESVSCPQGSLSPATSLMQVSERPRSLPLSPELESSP

[28] = target: Phosphatidylinositol 4-kinase beta (Homo sapiens) (UniProt Q9UBF8); settings: Compound concentration 1000.0 nM
[29] = target: 5-hydroxytryptamine receptor 1E (Homo sapiens) (UniProt P28566); settings: Compound concentration 10.0 uM
Sequence of 5-hydroxytryptamine receptor 1E (Homo sapiens) (P28566 whole entry): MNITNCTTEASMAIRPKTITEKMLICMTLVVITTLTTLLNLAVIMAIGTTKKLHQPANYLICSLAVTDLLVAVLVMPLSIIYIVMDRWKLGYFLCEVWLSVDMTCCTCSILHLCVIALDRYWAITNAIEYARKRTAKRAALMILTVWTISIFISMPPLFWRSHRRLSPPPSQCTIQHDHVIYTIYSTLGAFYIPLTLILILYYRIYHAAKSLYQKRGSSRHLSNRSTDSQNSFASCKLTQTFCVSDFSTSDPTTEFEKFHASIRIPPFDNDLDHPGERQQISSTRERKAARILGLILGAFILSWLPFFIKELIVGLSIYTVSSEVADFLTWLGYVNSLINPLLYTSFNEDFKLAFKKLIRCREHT

[30] = target: Mitogen-activated protein kinase kinase kinase 12 (Homo sapiens) (UniProt Q12852); settings: Compound concentration 1000.0 nM
[31] = tested on: Mast/stem cell growth factor receptor Kit (Homo sapiens), P10721 [A829P]; settings: Compound concentration 1000.0 nM
Sequence of Mast/stem cell growth factor receptor Kit (Homo sapiens), P10721 [A829P] (P10721 whole entry A829P): as the sequence (P10721 whole entry D816V, canonical isoform) above, with V816D, A829P counted along it

[32] = tested on: Tyrosine-protein kinase ABL1 (Homo sapiens), P00519 [F317I]; settings: Compound concentration 1000.0 nM
[33] = target: Mitogen-activated protein kinase 4 (Homo sapiens) (UniProt P31152); settings: Compound concentration 1000.0 nM
[34] = target: Serine/threonine-protein kinase N1 (Homo sapiens) (UniProt Q16512); settings: Compound concentration 1000.0 nM
[35] = target: T1, D(4) dopamine receptor (Homo sapiens) (UniProt P21917); settings: Compound concentration 10.0 uM
T1 sequence (whole entry): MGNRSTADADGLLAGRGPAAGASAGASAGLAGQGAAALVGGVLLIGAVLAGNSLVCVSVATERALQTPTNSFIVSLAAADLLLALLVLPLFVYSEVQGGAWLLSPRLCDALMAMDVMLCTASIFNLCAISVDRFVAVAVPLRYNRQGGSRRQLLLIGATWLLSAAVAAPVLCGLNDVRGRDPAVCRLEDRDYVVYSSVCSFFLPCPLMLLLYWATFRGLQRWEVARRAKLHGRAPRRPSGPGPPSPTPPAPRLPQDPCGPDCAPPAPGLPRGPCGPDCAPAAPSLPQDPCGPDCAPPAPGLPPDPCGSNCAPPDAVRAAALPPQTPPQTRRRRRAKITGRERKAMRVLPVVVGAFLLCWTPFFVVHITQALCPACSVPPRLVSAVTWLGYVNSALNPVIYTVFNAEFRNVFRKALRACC

[36] = target: Serine/threonine-protein kinase 10 (Homo sapiens) (UniProt O94804); settings: Compound concentration 1000.0 nM
Sequence of Serine/threonine-protein kinase 10 (Homo sapiens) (O94804 whole entry, looked up): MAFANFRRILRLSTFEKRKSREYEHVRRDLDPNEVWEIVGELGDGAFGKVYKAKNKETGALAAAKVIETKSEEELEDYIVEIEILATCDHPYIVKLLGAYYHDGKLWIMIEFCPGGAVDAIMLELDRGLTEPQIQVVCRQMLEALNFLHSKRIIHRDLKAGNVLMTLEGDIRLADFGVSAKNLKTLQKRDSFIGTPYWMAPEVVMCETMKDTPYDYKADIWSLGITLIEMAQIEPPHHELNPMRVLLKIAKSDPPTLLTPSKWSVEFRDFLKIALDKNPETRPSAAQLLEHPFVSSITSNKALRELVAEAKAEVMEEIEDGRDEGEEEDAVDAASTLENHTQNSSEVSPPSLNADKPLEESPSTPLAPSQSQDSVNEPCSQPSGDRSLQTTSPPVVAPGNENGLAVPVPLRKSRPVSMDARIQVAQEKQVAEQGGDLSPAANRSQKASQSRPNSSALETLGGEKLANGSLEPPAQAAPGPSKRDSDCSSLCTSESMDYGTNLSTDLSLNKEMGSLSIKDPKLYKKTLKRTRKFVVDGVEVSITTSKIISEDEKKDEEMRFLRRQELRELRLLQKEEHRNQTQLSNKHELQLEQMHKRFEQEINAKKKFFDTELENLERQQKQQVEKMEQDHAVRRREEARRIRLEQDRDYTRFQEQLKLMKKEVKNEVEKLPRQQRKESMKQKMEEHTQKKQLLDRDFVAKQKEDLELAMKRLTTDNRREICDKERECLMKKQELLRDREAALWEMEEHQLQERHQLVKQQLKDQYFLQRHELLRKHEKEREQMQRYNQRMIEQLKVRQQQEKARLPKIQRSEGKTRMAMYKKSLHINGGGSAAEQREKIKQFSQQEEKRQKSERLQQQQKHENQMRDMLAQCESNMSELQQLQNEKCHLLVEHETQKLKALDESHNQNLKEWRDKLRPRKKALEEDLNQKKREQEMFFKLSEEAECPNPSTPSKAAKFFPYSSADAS

[37] = tested on: Tyrosine-protein kinase ABL1 (Homo sapiens), P00519 [H396P]; settings: Compound concentration 1000.0 nM
[38] = target: LIM domain kinase 1 (Homo sapiens) (UniProt P53667); settings: Compound concentration 1000.0 nM
[39] = target: Mitogen-activated protein kinase 11 (Homo sapiens) (UniProt Q15759); settings: Compound concentration 1000.0 nM
[40] = target: Tyrosine-protein kinase ABL2 (Homo sapiens) (UniProt P42684); settings: Compound concentration 1000.0 nM

Row | SMILES | residual activity [1] | residual activity [2] | residual activity [3] | residual activity [4] | residual activity [5] | residual activity [6] | residual activity [7] | residual activity [8] | residual activity [9] | residual activity [10] | residual activity [11] | residual activity [12] | residual activity [13] | residual activity [14] | residual activity [15] | residual activity [16] | residual activity [17] | residual activity [18] | residual activity [19] | residual activity [20] | further results
1 | O=C(O)[C@@H]1[C@@H](Cn2nnc3ccccc3c2=O)CC[C@H]1C(=O)c1ccc(OCCC2CCOCC2)cc1 [BAY-694] | 99% | 100% | 100% | 87% | 34% | 98% | 100% | 100% | 100% | 93% | 91% | 99% | 100% | 97% | 100% | 100% | 93% | 100% | 99% | 90% | residual activity [21]: 100%; residual activity [22]: 91%; residual activity [23]: 100%; residual activity [24]: 88%; residual activity [25]: 87%; residual activity [26]: 80%; residual activity [27]: 100%; residual activity [28]: 83%; inhibition [29]: 3.94%; residual activity [30]: 98%; residual activity [31]: 90%; residual activity [32]: 82%; residual activity [33]: 100%; residual activity [34]: 97%; inhibition [35]: 21.9%; residual activity [36]: 84%; residual activity [37]: 97%; residual activity [38]: 100%; residual activity [39]: 99%; residual activity [40]: 92%
2 | O=C(O)[C@H]1[C@H](Cn2nnc3ccccc3c2=O)CC[C@@H]1C(=O)c1ccc(OCCC2CCOCC2)cc1 [BAY-7598] | 88% | 100% | 79% | 100% | 73% | 97% | 100% | 66% | 95% | 100% | 100% | 100% | 91% | 92% | 100% | 100% | 75% | 93% | 100% | 93% | residual activity [21]: 100%; residual activity [22]: 100%; residual activity [23]: 99%; residual activity [24]: 84%; residual activity [25]: 79%; residual activity [26]: 72%; residual activity [27]: 93%; residual activity [28]: 93%; inhibition [29]: 7.37%; residual activity [30]: 88%; residual activity [31]: 84%; residual activity [32]: 86%; residual activity [33]: 82%; residual activity [34]: 88%; inhibition [35]: 12.5%; residual activity [36]: 100%; residual activity [37]: 94%; residual activity [38]: 100%; residual activity [39]: 78%; residual activity [40]: 99%
